From article PMC5458078, “Global mapping of CARM1 substrates defines enzyme specificity and substrate recognition” (Nature Communications, 2017)
Read-outs that look alike come from different tables or passages of the source.

Assays:
MCF7 CARM1 KO cells = experiment: Quantitative MS of ADMA-containing peptides in MCF7 CARM1 KO cells expressing CARM1 28-608 or CARM1 140-608, and in CARM1 KO; type: cell-based, human
MCF7 cells = experiment: Quantitative nanoLC-MS/MS (TMT) of ADMA-containing peptides, CARM1 KO vs parental; type: cell-based, human; set-up: Fold change KO/WT: scale not given here
[1] = CARM1 140-608 vs WT, mean of 3 replicates (log2 scale)
[2] = KO vs WT, mean of 3 replicates (log2 scale)
[3] = MCF7, CARM1 KO (KO1-KO3) vs wild type (WT1-WT3)
[4] = CARM1 140-608 vs WT, mean of 3 replicates, log2
[5] = KO vs WT, mean of 3 replicates, log2
[6] = MCF7, CARM1 KO vs WT, three biological replicates each
[7] = difference of log2 means, CARM1 140-608 vs WT
[8] = difference of log2 means, KO vs WT
[9] = MCF7 CARM1 knockout vs wild type, 3 biological replicates each, values are on log2 scale
[10] = log2 scale ratio, mean of n = 3
[11] = ADMA-containing peptide, MCF7, CARM1 knockout (KO1-3) vs wild type (WT1-3), TMT 6-plex experiment #1
[12] = ratio on log2 scale, mean of 3 replicates
[13] = CARM1 140-608 versus WT, mean of three replicates (log2)
[14] = KO versus WT, mean of three replicates (log2)
[15] = ADMA-containing peptide, CARM1 knockout (KO) vs wild type (WT) MCF7 cells, 6-plex TMT experiment #1, three biological replicates each, sheet "MCF7"
[16] = mean, CARM1 140-608 versus WT (log2 scale)
[17] = mean, CARM1 KO versus WT (log2 scale)
[18] = MCF7, CARM1 knockout vs wild type, n = 3 each
[19] = CARM1 140-608 versus WT, difference of mean log2 values
[20] = CARM1 KO versus WT, difference of mean log2 values
[21] = CARM1 KO vs wild type MCF7 cells, 3 biological replicates each

Substance: APGPrGSYLGGYSAGrGIYSR
- CARM1 140-608/WT (MCF7 CARM1 KO cells; [1]): 0.2879
- KO/WT (MCF7 CARM1 KO cells; [2]): 0.5206
- Fold change KO/WT (MCF7 cells; [3]): 0.2541

Substance: TATVTIrPNTSGSGGTTSNSQVITGPQIrPGMTVIrTPLQQSTLGK
- CARM1 140-608/WT (MCF7 CARM1 KO cells; [4]): 1.9774
- KO/WT (MCF7 CARM1 KO cells; [5]): -1.958
- Fold change KO/WT (MCF7 cells; [6]): -2.17

Substance: STLKPQPAPQAGPIPVAPIGTLKPQPQPVPASYTTASTSSrPTFNVQVK
- CARM1 140-608/WT (MCF7 CARM1 KO cells; [7]): -2.676
- KO/WT (MCF7 CARM1 KO cells; [8]): -3.941
- Fold change KO/WT (MCF7 cells; [9]): -3.941

Substance: APPSFPPPAASrGGLGGTR
- CARM1 140-608/WT (MCF7 CARM1 KO cells; [10]): -0.3832
- KO/WT (MCF7 CARM1 KO cells; [10]): 0.1973
- Fold change KO/WT (MCF7 cells; [11]): 0.1973

Substance: VREELLrHQLLEK
- CARM1 140-608/WT (MCF7 CARM1 KO cells; [4]): -2.55
- KO/WT (MCF7 CARM1 KO cells; [5]): -4.282
- Fold change KO/WT (MCF7 cells; [6]): -4.282

Substance: TGALPGPGPLSNPrLGGLPGPGPMSNPR
- CARM1 140-608/WT (MCF7 CARM1 KO cells; [12]): -0.9797
- KO/WT (MCF7 CARM1 KO cells; [12]): -1.901
- Fold change KO/WT (MCF7 cells; [6]): -3.491

Substance: FDGSPGQMGGGGPLrFEGPQGQLGGGCPLrFEGPPGPVGTPLrFEGPIGQAGGGGFR
- CARM1 140-608/WT (MCF7 CARM1 KO cells; [13]): 0.07812
- KO/WT (MCF7 CARM1 KO cells; [14]): -4.068
- Fold change KO/WT (MCF7 cells; [15]): -4.068

Substance: ELAPrAHVLSK
- CARM1 140-608/WT (MCF7 CARM1 KO cells; [16]): -1.733
- KO/WT (MCF7 CARM1 KO cells; [17]): -2.404
- Fold change KO/WT (MCF7 cells; [18]): -2.404

Substance: GVGPPrGALVrGTPVrGAITR
- CARM1 140-608/WT (MCF7 CARM1 KO cells; [16]): 0.2467
- KO/WT (MCF7 CARM1 KO cells; [17]): 0.3361
- Fold change KO/WT (MCF7 cells; [9]): -0.04858

Substance: VPrFSSLSSCNPPAMATSAEK
- CARM1 140-608/WT (MCF7 CARM1 KO cells; [16]): -1.357
- KO/WT (MCF7 CARM1 KO cells; [17]): -1.804
- Fold change KO/WT (MCF7 cells; [18]): -1.804

Substance: NPFLTGLSAPSPTNPFGAGEPGrPTLNQMR
- CARM1 140-608/WT (MCF7 CARM1 KO cells; [12]): -2.593
- KO/WT (MCF7 CARM1 KO cells; [12]): -3.967
- Fold change KO/WT (MCF7 cells; [18]): -3.967

Substance: SGSGNFGGGrGGGFGGNDNFGrGGNFSGrGGFGGSR
- CARM1 140-608/WT (MCF7 CARM1 KO cells; [16]): 0.1031
- KO/WT (MCF7 CARM1 KO cells; [17]): 0.7867
- Fold change KO/WT (MCF7 cells; [18]): 0.2137

Substance: LGQDPYrLGHDPYR
- CARM1 140-608/WT (MCF7 CARM1 KO cells): -1.933
- KO/WT (MCF7 CARM1 KO cells): -1.973
- Fold change KO/WT (MCF7 cells; [11]): -1.973

Substance: QSSATSSFGGLGGGSVrFGPGVAFR
- CARM1 140-608/WT (MCF7 CARM1 KO cells; [7]): -2.723
- KO/WT (MCF7 CARM1 KO cells; [8]): -4.023
- Fold change KO/WT (MCF7 cells; [9]): -2.868

Substance: ASrGrGGLGPSWASANSGSGGSrGK
- CARM1 140-608/WT (MCF7 CARM1 KO cells; [16]): 0.01356
- KO/WT (MCF7 CARM1 KO cells; [17]): 0.5944
- Fold change KO/WT (MCF7 cells; [9]): 0.06985

Substance: VQTHLENPTrYHLQQAR
- CARM1 140-608/WT (MCF7 CARM1 KO cells; [10]): -1.396
- KO/WT (MCF7 CARM1 KO cells; [10]): -1.173
- Fold change KO/WT (MCF7 cells; [11]): -1.173

Substance: FrHNIAYFPQIVSVAAR
- CARM1 140-608/WT (MCF7 CARM1 KO cells; [16]): -0.3364
- KO/WT (MCF7 CARM1 KO cells; [17]): -0.6457
- Fold change KO/WT (MCF7 cells; [9]): -0.6457

Substance: MGTPVPRPPQDMGQIGVrTPLGPrVAAPVGPVGPTPTVLPMGAPVPrPR
- CARM1 140-608/WT (MCF7 CARM1 KO cells; [1]): -2.519
- KO/WT (MCF7 CARM1 KO cells; [2]): -3.3286
- Fold change KO/WT (MCF7 cells; [3]): -2.803

Substance: QAPrDGLTPVPPLAPAPrPPSSGLPAVLNPrPTLTPGrLPTPTLGTArAPMPTPTLVrPLLK
- CARM1 140-608/WT (MCF7 CARM1 KO cells; [10]): -2.613
- KO/WT (MCF7 CARM1 KO cells; [10]): -4.977
- Fold change KO/WT (MCF7 cells; [11]): -4.977

Substance: SGFAATSQPGPrLPFIQHSQNPrFYHK
- CARM1 140-608/WT (MCF7 CARM1 KO cells; [16]): -0.6332
- KO/WT (MCF7 CARM1 KO cells; [17]): -3.722
- Fold change KO/WT (MCF7 cells; [18]): -3.247

Substance: YLQTVQYGVHGNFPrLSYPTFFPR
- CARM1 140-608/WT (MCF7 CARM1 KO cells; [16]): -2.496
- KO/WT (MCF7 CARM1 KO cells; [17]): -3.476
- Fold change KO/WT (MCF7 cells; [18]): -2.556

Substance: GrGSLLLR
- CARM1 140-608/WT (MCF7 CARM1 KO cells; [13]): 0.6421
- KO/WT (MCF7 CARM1 KO cells; [14]): 1.1394
- Fold change KO/WT (MCF7 cells; [15]): 1.1394

Substance: TPGQINLAQLrLQHMQQQVYAQK
- CARM1 140-608/WT (MCF7 CARM1 KO cells; [19]): -3.552
- KO/WT (MCF7 CARM1 KO cells; [20]): -5.003
- Fold change KO/WT (MCF7 cells; [11]): -4.121

Substance: AQPFAQPPGPWPLSSPGPrLVFNR
- CARM1 140-608/WT (MCF7 CARM1 KO cells; [12]): -2.181
- KO/WT (MCF7 CARM1 KO cells; [12]): -4.994
- Fold change KO/WT (MCF7 cells; [18]): -4.7261

Substance: GGrGrGSLNHMVVDHRPK
- CARM1 140-608/WT (MCF7 CARM1 KO cells; [1]): 0.3773
- KO/WT (MCF7 CARM1 KO cells; [2]): 0.3337
- Fold change KO/WT (MCF7 cells; [3]): 0.3337

Substance: FAPrGAPHFrFIIAGR
- CARM1 140-608/WT (MCF7 CARM1 KO cells; [10]): -0.6829
- KO/WT (MCF7 CARM1 KO cells; [10]): -0.5952
- Fold change KO/WT (MCF7 cells; [11]): -0.1223

Substance: GSRLPLALPPASQGCSSGGGGGGGGGSSAGGSGNSrPPR
- CARM1 140-608/WT (MCF7 CARM1 KO cells; [16]): -0.7656
- KO/WT (MCF7 CARM1 KO cells; [17]): -0.9721
- Fold change KO/WT (MCF7 cells; [9]): -0.9721

Substance: VrPVLNLPGPGPALPR
- CARM1 140-608/WT (MCF7 CARM1 KO cells; [13]): -1.7334
- KO/WT (MCF7 CARM1 KO cells; [14]): -4.296
- Fold change KO/WT (MCF7 cells; [15]): -2.268

Substance: NSCPGPLDSSAFLSSDFLLPEDPKPrLPPPPVPPPLLHYPPPAK
- CARM1 140-608/WT (MCF7 CARM1 KO cells; [7]): -1.41
- KO/WT (MCF7 CARM1 KO cells; [8]): -3.136
- Fold change KO/WT (MCF7 cells; [15]): -3.136

Substance: GSGTGIYSNAAPPPVTYQGNLYrPLLR
- CARM1 140-608/WT (MCF7 CARM1 KO cells; [19]): 1.554
- KO/WT (MCF7 CARM1 KO cells; [20]): -1.424
- Fold change KO/WT (MCF7 cells; [21]): -2.788

Substance: NAALGPSEPrLALAPVGPrAAMSASSEGPrLALASPrPILAPLCTPEGQK
- CARM1 140-608/WT (MCF7 CARM1 KO cells; [16]): -2.352
- KO/WT (MCF7 CARM1 KO cells; [17]): -3.912
- Fold change KO/WT (MCF7 cells; [9]): -3.912

Substance: GPPLArLPHDPGVFR
- CARM1 140-608/WT (MCF7 CARM1 KO cells; [12]): -1.527
- KO/WT (MCF7 CARM1 KO cells; [12]): -1.8
- Fold change KO/WT (MCF7 cells; [18]): -1.8

Substance: IPGIPrHSGPQYSMMQPHLQR
- CARM1 140-608/WT (MCF7 CARM1 KO cells; [19]): 1.323
- KO/WT (MCF7 CARM1 KO cells; [20]): -0.1608
- Fold change KO/WT (MCF7 cells; [21]): -0.5283
